Common to all, as to type: biochemical
In test [1] the target is T1, Aurora A kinase (Homo sapiens, UniProt O14965).
T1 construct: purchased Upstate
T1 sequence (O14965 1-403): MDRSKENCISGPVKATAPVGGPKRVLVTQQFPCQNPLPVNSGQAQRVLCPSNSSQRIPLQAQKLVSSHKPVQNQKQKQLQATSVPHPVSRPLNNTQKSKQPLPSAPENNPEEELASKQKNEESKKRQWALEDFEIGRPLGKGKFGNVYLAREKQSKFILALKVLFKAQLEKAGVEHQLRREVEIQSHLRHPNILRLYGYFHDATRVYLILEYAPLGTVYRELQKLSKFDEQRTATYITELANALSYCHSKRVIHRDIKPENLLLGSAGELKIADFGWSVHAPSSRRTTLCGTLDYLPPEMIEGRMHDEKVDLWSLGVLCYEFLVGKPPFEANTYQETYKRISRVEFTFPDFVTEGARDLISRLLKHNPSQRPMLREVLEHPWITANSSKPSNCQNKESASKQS
The experiment in a line: Aurora A kinase assay ([γ-33P]ATP, CHOCKtide substrate). The conditions noted are these: for inhibition at 1 µM: 1.0 μM test compound. On the procedure:
(§1) Inhibition of Aurora Kinase by the compounds disclosed herein was determined by incubating Aurora kinase, substrate, and a test compound together for a period of time followed by quantifying the resultant phosphorylated product. Specifically, in a well of a 96-well round bottom plate, 25 μL of a reaction mixture containing (1) a test compound disclosed herein (diluted from 9 μM to the desired final concentration), [γ-33P]ATP/ATP mix (10 μM), CHOCKtide (1 μg, Genesis Biotech Inc.), and Aurora-A (1 ng, purchased from Upstate); or (2) a test compound disclosed herein (diluted from 9 μM to the desired final concentration), [γ-33P]ATP/ATP mix (40 μM), CHOCKtide (1 μg, Genesis Biotech Inc.), and Aurora-B (2.5 ng, purchased from Cell signaling); was prepared and incubated at 33° C. for 30 minutes. The reaction was then stopped by adding 5 μL of 3% phosphoric acid. The resultant solution (30 μL) was later harvested by a UniFilter Plate GF/B (PerkinElmer) followed by adding 30 μL of the scintillation cocktail (MicroScint 20, PerkinElmer) to the well. The radioactivity retained on the filter membrane was measured by a luminescence counter (PerkinElmer). IC50 value is defined as the concentration of the test compound which achieves a half-maximal inhibition of the kinase activity.

Test [2] addresses T2, c-Met kinase (Homo sapiens, UniProt P08581).
T2 construct: recombinant N-terminal 6×His-tagged c-Met kinase domain construct expressed from baculovirus; 6xHis (N); made in house
The experiment in a line: c-Met kinase assay (33P incorporation into Poly(Glu-Tyr)). The conditions noted are these: 500 nM test compound. On the procedure:
Inhibition of c-Met kinase activity by compounds disclosed herein was quantified by measuring the amount of [^33P] incorporated into the substrate in the presence of a test compound. Briefly, a reaction mixture of 25 μL final volume containing 5 ng of c-Met kinase (obtained by purifying recombinant N-terminal 6×His-tagged c-Met kinase domain construct expressed from baculovirus), 1 μg of the substrate (Poly (Glu-Tyr, 4:1, Sigma)), kinase reaction buffer (20 mM MOPS pH 7.0, 1 mM EDTA, 5% glycerol, 0.01% Brij-35, 0.1% β-mercaptoethanol, 1 mg/mL BSA, 100 μM ATP, 0.1 μCi per well [^33P]-γ-ATP (2,500-3,000 Ci/mmol)), and a test compound (500 nM, diluted with 4% DMSO) or DMSO (as the control) was incubated at 30° C. for 30 minutes. The reaction was stopped by adding 5 μL of 3% phosphoric acid solution. The resultant reaction solution was then harvested onto a filter plate (UniFilter-96 GF/B, PerkinElmer), washed 20 times for 5 min with d.d. H2O, and followed by the addition of 30 μL of MicroScint™-20 Cocktail (PerkinElmer). The plate was then sealed and counted using a TopCount scintillation detector (PerkinElmer). The percentage of inhibition rate of the test compound was calculated by dividing the retained radioactivity of the test sample with the retained radioactivity of the control sample and shown in Table 3.

In test [3] the target is T3, Aurora B kinase (Homo sapiens, UniProt Q96GD4).
T3 construct: purchased Cell signaling
The experiment in a line: Aurora B kinase assay ([γ-33P]ATP, CHOCKtide substrate). The conditions noted are these: for inhibition at 1 µM: 1.0 μM test compound. On the procedure:
as §1

This is an account of results in US7897602B2, “Indolinone compounds as kinase inhibitors” (Development Center for Biotechnology, priority 2009, dated 2011).

T3 sequence (Q96GD4 whole entry): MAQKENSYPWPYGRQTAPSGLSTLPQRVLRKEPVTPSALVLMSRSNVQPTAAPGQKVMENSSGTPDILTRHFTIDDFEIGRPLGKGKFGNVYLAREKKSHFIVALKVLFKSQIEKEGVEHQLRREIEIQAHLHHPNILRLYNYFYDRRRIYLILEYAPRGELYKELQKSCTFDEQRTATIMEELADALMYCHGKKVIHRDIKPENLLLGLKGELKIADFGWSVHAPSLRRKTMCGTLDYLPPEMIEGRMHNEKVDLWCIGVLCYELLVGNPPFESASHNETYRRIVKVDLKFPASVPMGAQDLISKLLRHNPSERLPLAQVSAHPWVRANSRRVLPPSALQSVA
T2 sequence (P08581 1078-1345 limits assumed): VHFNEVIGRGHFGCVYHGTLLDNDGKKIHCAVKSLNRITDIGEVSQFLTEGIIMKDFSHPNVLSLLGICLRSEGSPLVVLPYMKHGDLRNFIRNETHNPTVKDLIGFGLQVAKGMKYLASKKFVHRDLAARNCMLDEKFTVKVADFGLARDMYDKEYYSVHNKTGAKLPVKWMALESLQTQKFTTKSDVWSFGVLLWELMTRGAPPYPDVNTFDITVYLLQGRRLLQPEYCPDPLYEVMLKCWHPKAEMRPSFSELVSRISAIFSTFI

The inhibition is the relative decrease from the control value, in per cent. For the molecule `CCOC(=O)CCc1c(/C=C2\C(=O)Nc3ccc(NC(=O)NC45CC6CC(CC(C6)C4)C5)cc32)[nH]c2c1C(=O)CCC2` [DCB-70174, Ethyl 3-(2-((Z)-(5-(3-(1-adamantanyl)ureido)-2-oxoindolin-3-ylidene)methyl)-4-oxo-4,5,6,7-tetrahydro-1H-indol-3-yl)propanoate], the results for the inhibition at 1 µM in test [1] and in test [3] were 2.4% and -11.4%, respectively. In test [2], the inhibition at 0.5 µM came to 4%.
Turning to `CCOC(=O)CCc1c(/C=C2\C(=O)Nc3ccc(NCc4ccc(OC)cc4)cc32)[nH]c2c1C(=O)CCC2` [DCB-70175, (Z)-ethyl 3-(2-((5-(4-methoxybenzylamino)-2-oxoindolin-3-ylidene)methyl)-4-oxo-4,5,6,7-tetrahydro-1H-indol-3-yl)propanoate], the inhibition at 1 µM is 30.7% in test [1] and 8.4% in test [3]. Besides, the inhibition at 0.5 µM in test [2] is 17.3%.
On to `CCOC(=O)CCc1c(/C=C2\C(=O)Nc3ccc(NCc4ccc(F)cc4)cc32)[nH]c2c1C(=O)CCC2` [DCB-70176, (Z)-ethyl 3-(2-((5-(4-fluorobenzylamino)-2-oxoindolin-3-ylidene)methyl)-4-oxo-4,5,6,7-tetrahydro-1H-indol-3-yl)propanoate], for which the values for the inhibition at 1 µM in test [1] and in test [3] were 52.3% and 15.2%, respectively. Further, in test [2], the inhibition at 0.5 µM is 10.1%.
The corresponding values for `CCOC(=O)CCc1c(/C=C2\C(=O)Nc3ccc(/N=C/c4ccncc4)cc32)[nH]c2c1C(=O)CCC2` [DCB-70177, ethyl 3-(4-oxo-2-((Z)-(2-oxo-5-((E)-pyridin-4-ylmethyleneamino)indolin-3-ylidene)methyl)-4,5,6,7-tetrahydro-1H-indol-3-yl)propanoate] are 81.6%, 22.5% and 18.8%.
Turning to `CCOC(=O)CCc1c(/C=C2\C(=O)Nc3ccc(/N=C/c4ccc(F)c(C(F)(F)F)c4)cc32)[nH]c2c1C(=O)CCC2` [DCB-70178, ethyl 3-(2-((Z)-(5-((E)-4-fluoro-3-(trifluoromethyl)benzylideneamino)-2-oxoindolin-3-ylidene)methyl)-4-oxo-4,5,6,7-tetrahydro-1H-indol-3-yl)propanoate], the values for the inhibition at 1 µM in test [1] and in test [3] were 31.2% and 1.9%, respectively. Moreover, in test [2], the inhibition at 0.5 µM is 7.8%.
On to `CCOC(=O)CCc1c(/C=C2\C(=O)Nc3ccc(NC(C)c4ccccc4)cc32)[nH]c2c1C(=O)CCC2` (stereo not shown) [DCB-70179, (Z)-ethyl 3-(4-oxo-2-((2-oxo-5-(1-phenylethylamino)indolin-3-ylidene)methyl)-4,5,6,7-tetrahydro-1H-indol-3-yl)propanoate], for which the inhibition at 1 µM in test [1] turned out to be 59.9%; in test [3] it was 40.1%. Moreover, the inhibition at 0.5 µM in test [2] was 17.9%.
As a reminder, the IC50 is the concentration needed to halve the response being measured. A low value points to inhibition by little substance. With `CCOC(=O)CCc1c(/C=C2\C(=O)Nc3ccc(/N=C/c4ccsc4)cc32)[nH]c2c1C(=O)CCC2` [DCB-70180, ethyl 3-(4-oxo-2-((Z)-(2-oxo-5-((E)-thiophen-3-ylmethyleneamino)indolin-3-ylidene)methyl)-4,5,6,7-tetrahydro-1H-indol-3-yl)propanoate], the inhibition at 1 µM in test [1] amounted to 71.5%. Moreover, in test [2], the inhibition at 0.5 µM came out at 5.1%. Moreover, in test [3], inhibition was half-maximal at 866 nM (IC50) and the inhibition at 1 µM amounted to 47.4%.
Turning to `CCOC(=O)CCc1c(/C=C2\C(=O)Nc3ccc(NC(=O)Nc4ccc(F)cc4F)cc32)[nH]c2c1C(=O)CCC2` [DCB-70183, (Z)-ethyl 3-(2-((5-(3-(2,4-difluorophenyl)ureido)-2-oxoindolin-3-ylidene)methyl)-4-oxo-4,5,6,7-tetrahydro-1H-indol-3-yl)propanoate], the inhibition at 1 µM in test [1] was found to be 13.2%; in test [3], 13.9%. In addition, the inhibition at 0.5 µM in test [2] was 1.5%.
Consider `CCOC(=O)CCc1c(/C=C2\C(=O)Nc3ccc(NC(=O)Nc4ccc(Cl)cc4Cl)cc32)[nH]c2c1C(=O)CCC2` [DCB-70184, (Z)-ethyl 3-(2-((5-(3-(2,4-dichlorophenyl)ureido)-2-oxoindolin-3-ylidene)methyl)-4-oxo-4,5,6,7-tetrahydro-1H-indol-3-yl)propanoate], for which the inhibition at 1 µM in test [1] came out at 6.6%; in test [3], 6.8%. The inhibition at 0.5 µM in test [2] amounted to 8.7%.
Turning to `Nc1ccccc1NC(=O)CCc1c(/C=C2\C(=O)Nc3ccc(NS(=O)(=O)c4ccccc4)cc32)[nH]c2c1C(=O)CCC2` [DCB-70186, (Z)-N-(2-aminophenyl)-3-(4-oxo-2-((2-oxo-5-(phenylsulfonamido)indolin-3-ylidene)methyl)-4,5,6,7-tetrahydro-1H-indol-3-yl)propanamide], the figures for the inhibition at 1 µM in test [1] and in test [3] were 66.1% and 47.4%, respectively. Moreover, in test [2], the inhibition at 0.5 µM turned out to be 9.6%.
The corresponding values for `CC(=O)c1c(C)[nH]c(/C=C2\C(=O)Nc3ccc(F)cc32)c1CCC(=O)O` [DCB-70187, (Z)-3-(4-acetyl-2-((5-fluoro-2-oxoindolin-3-ylidene)methyl)-5-methyl-1H-pyrrol-3-yl)propanoic acid] are 62.8%, 17.5% and 8.8%.
On to `CC(=O)c1c(C)[nH]c(/C=C2\C(=O)Nc3ccc(S(=O)(=O)N4CCc5ccccc54)cc32)c1CCC(=O)O` [DCB-70188, (Z)-3-(4-acetyl-2-((5-(indolin-1-ylsulfonyl)-2-oxoindolin-3-ylidene)methyl)-5-methyl-1H-pyrrol-3-yl)propanoic acid], for which, in test [1], it took 31.7 nM to reach half-maximal inhibition (IC50) and the inhibition at 1 µM turned out to be 95.5%. For the same molecule, the inhibition at 0.5 µM in test [2] was 51.1%. In test [3], the IC50 came out at 759 nM and the inhibition at 1 µM is 53.2%.
On to `CCOC(=O)CCc1c(/C=C2\C(=O)Nc3ccc(NS(=O)(=O)c4cc(F)cc(F)c4)cc32)[nH]c2c1C(=O)CCC2` [DCB-70189, (Z)-ethyl 3-(2-((5-(3,5-difluorophenylsulfonamido)-2-oxoindolin-3-ylidene)methyl)-4-oxo-4,5,6,7-tetrahydro-1H-indol-3-yl)propanoate], for which, in test [1], the IC50 was determined as 77.9 nM and the inhibition at 1 µM is 91.4%. The inhibition at 0.5 µM in test [2] amounted to 14%. In addition, in test [3], half-maximal inhibition (IC50) was put at 177 nM and the inhibition at 1 µM was 84%.
The corresponding values for `O=C(O)CCc1c(/C=C2\C(=O)Nc3ccc(NS(=O)(=O)c4cc(F)cc(F)c4)cc32)[nH]c2c1C(=O)CCC2` [DCB-70190, (Z)-3-(2-((5-(3,5-difluorophenylsulfonamido)-2-oxoindolin-3-ylidene)methyl)-4-oxo-4,5,6,7-tetrahydro-1H-indol-3-yl)propanoic acid] are 31.5 nM, 97%, 10%, 246 nM and 80%.
Take `CCOC(=O)CCc1c(/C=C2\C(=O)Nc3ccc(NS(=O)(=O)c4ccc5ccccc5c4)cc32)[nH]c2c1C(=O)CCC2` [DCB-70191, (Z)-ethyl 3-(2-((5-(naphthalene-2-sulfonamido)-2-oxoindolin-3-ylidene)methyl)-4-oxo-4,5,6,7-tetrahydro-1H-indol-3-yl)propanoate]: the inhibition at 1 µM in test [1] is 20.4%; in test [3] it was 21.2%. Further, the inhibition at 0.5 µM in test [2] stood at 19%.
Turning to `O=C(O)CCc1c(/C=C2\C(=O)Nc3ccc(NS(=O)(=O)c4ccc5ccccc5c4)cc32)[nH]c2c1C(=O)CCC2` [DCB-70192, (Z)-3-(2-((5-(naphthalene-2-sulfonamido)-2-oxoindolin-3-ylidene)methyl)-4-oxo-4,5,6,7-tetrahydro-1H-indol-3-yl)propanoic acid], the inhibition at 1 µM in test [1] was found to be 40.6%; in test [3], 21%. The inhibition at 0.5 µM in test [2] was 9.9%.
